Measured values taken from US20020001565A1, “Radioprotective agents” (priority 2000, published 2002).

System: CD2F 1 male mice
Assay: 30-day survival of mice after a lethal dose of cobalt-60 radiation
Assay type: in vivo
Description: Control groups were administered saline and polyethylene glycol 400 (the vehicle for the genistein) prior to irradiation. Genistein (Sigma Chemical Co., St. Louis, Mo.) was administered 400 mg/kg either as a single dose or multiple dosages of 100 mg/kg each at various times ranging from 1 hour to 4 days before radiation, after irradiation, or both before and after radiation.
In subsequent studies, using the procedures and mice of Example 1, a single subcutaneous dose of 100 or 400 mg/kg genistein was administered 24 hr before 9.5 Gy radiation.

In the case of `O=c1c(-c2ccc(O)cc2)coc2cc(O)cc(O)c12` [genistein, 5,7-dihydroxy-3-(4-hydroxyphenyl)-4H-1 benzopyran-4-one], the 30-day survival (100 mg/kg orally daily for 4 days before and 4 days after irradiation, 9.5 Gy) is reported as 50%, the 30-day survival (genistein before and after irradiation, oral, 9.5 Gy cobalt-60, dose not given) is reported as 69% and the 30-day survival (genistein only after irradiation, oral, 9.5 Gy cobalt-60, dose not given) is reported as 0%. The 30-day survival (genistein only before radiation, oral, 9.5 Gy cobalt-60 at 0.6 Gy/min, dose not given) was “Forty-four”, the 30-day survival (multiple oral administration 100 mg/kg, 4 days before irradiation, 9.5 Gy) was 0% and the 30-day survival (multiple oral administration 100 mg/kg, after irradiation, 9.5 Gy) was 0%. For the same compound, the radioprotection (single dose 400 mg/kg orally 1 hr before 9.5 Gy radiation) was “did not confer any measurable radioprotection”, the radioprotection (single dose 400 mg/kg orally 24 hr before 9.5 Gy radiation) was “did not confer any measurable radioprotection” and the 30-day survival rate (single subcutaneous dose 100 mg/kg 24 hr before 9.5 Gy radiation) was 69%. The 30-day survival rate (single subcutaneous dose 400 mg/kg 24 hr before 9.5 Gy radiation) was 81%.
